# Source: patent publication US9862711B2, “Pyrazine derivatives as phosphatidylinositol 3-kinase inhibitors” (NOVARTIS AG, priority 2014, dated 2018)
# Biological target: PI 3-kinase delta (Homo sapiens (Human), UniProt O00329)
# Test: Cellular p-Akt (S473) SureFire assay, Rat-1_PI3Kdelta cells (Assay J)
# Format: cell-based
# Conditions: p-AKT (Ser473) in Rat-1 cells expressing myr-HA-hp110 delta, 1 h compound; read-out: Assay J PI3Kδ IC50
# Description: Cellular Assays for PI 3-Kinase Alpha (H), Beta (I) and Delta (J)
# AlphaScreen (Amplified Luminescent Proximity Homogeneous Assay, ALPHA, Perkin Elmer) is a non-radioactive bead-based proximity assay technology to study biomolecular interactions in a homogenous microtiter plate format. The brand name SureFire denotes AlphaScreen assays that are adapted to quantify the phosphorylation of endogenous cellular proteins in cell lysates, by using matched antibody pairs, which consist of an anti-phospho-kinase and an anti-kinase antibody. The assay allows characterization of kinase signaling in cells as well as measurement of kinase inhibitor effects.
# Rat-1 cell lines stably overexpressing activated PI 3-kinase class I isoforms Rat-1 pBABEpuro Myr-HA-hp110 delta clone 5 (Rat-1_PI3Kdelta) and Rat-1 pBABEpuro Myr-HA-hp110 alpha clone 6 (Rat-1_PI3Kalpha) and Rat-1 pBABEpuro Myr-HA-hp110 beta (Rat-1_PI3beta) were cultivated in complete growth medium (DMEM high glucose, 10% (v/v) fetal bovine serum, 1% (v/v) MEM NEAA, 10 mM HEPES, 2 mM L-glutamine, puromycin (10 μg/mL for Rat-1_PI3Kdelta and Rat-1_PI3Kalpha, 4 ug/mL for Rat-1_PI3beta), 1% (v/v) Pen/Strep) to 90% confluency at 37° C./5% CO2/90% humidity in a humidified CO2 incubator and were split twice a week. The following materials were used for p-AKT(5473) detection in Rat-1 cell lysates: Dulbecco's modified Eagle's medium (DMEM) high glucose (Gibco Invitrogen, Basel, Switzerland, Cat. No. 41965), heat inactivated fetal bovine serum, qualified (HI FBS; Gibco Invitrogen, Basel, Switzerland, Lot. No. 16140), MEM non essential amino acids (NEAA; Gibco Invitrogen, Basel, Switzerland, Cat. No. 11140), HEPES (Gibco Invitrogen, Basel, Switzerland, Cat. No. 15630), penicillin/streptomycin (Pen/Strep, 100×; Gibco Invitrogen, Basel, Switzerland, Cat. No. 15140-122), L-glutamine (Gibco Invitrogen, Basel, Switzerland, Cat. No. 25030), puromycin (Sigma Aldrich, Buchs, Switzerland, Cat. No. P9620), DMSO (MERCK, Dietikon, Switzerland, Cat. No. 8.02912.2500), H2O, MilliQ-H2O unless otherwise stated (MILLIPORE QGARDOOR1, Millipore, Zug, Switzerland), bovine serum albumine (BSA; Sigma Aldrich, Buchs, Switzerland Cat. No. A8412), SureFire p-Akt 1/2 (Ser473) Assay Kit (Perkin Elmer, Schwerzenbach, Switzerland, Cat. No. TGRAS50K).
# The p-Akt (S473) SureFire assay measures the phosphorylation of endogenous cellular Akt 1/2 at Ser473 in cell lysates. Using Rat-1 cells stably expressing myr-HA-tagged versions of the human PI3Kdelta, PI3Kalpha, or PI3Kbeta p110 catalytic subunit isoforms, the assay was developed as a two-plate protocol in a 384-well format.
# For compound testing, the cells were seeded at a density of 4000 (Rat-1_PI3Kdelta), 7500 (Rat-1_PI3Kalpha), or 6200 (Rat-1_PI3Kbeta) cells in 20 μl complete growth medium into cell culture treated 384-well plates and were grown at 37° C./5% CO2/90% humidity for 24 h. Shortly before compound transfer, the complete medium was removed, 30 μl assay buffer (DMEM high glucose, 1×MEM NEAA, 10 mM HEPES, 2 mM L-glutamine, 0.1% (w/v) BSA) was added and 10 μl of the compound predilutions were transferred to the cells. After treatment with compound for 1 h, the cells were lysed by the addition of 20 μl lysis buffer supplemented with 0.24% (w/v) BSA. Detection of p-AKT (Ser473) was performed with the SureFire p-Akt 1/2 (Ser473) Assay Kit according to the manufacturer's instructions using 5 ul of cell lysate in a total detection volume of 12 μl.
# IC50 values of the percentage inhibition of each compound at 8 concentrations (usually 10, 3.0, 1.0, 0.3, 0.1, 0.030, 0.010 and 0.003 μM) n=2 were derived by fitting a sigmoidal dose-response curve to a plot of assay readout over inhibitor concentration as described. All fits were performed with the program XLfit4 (ID Business Solutions, Guildford, UK).
# PI 3-kinase delta, sequence (O00329 whole entry): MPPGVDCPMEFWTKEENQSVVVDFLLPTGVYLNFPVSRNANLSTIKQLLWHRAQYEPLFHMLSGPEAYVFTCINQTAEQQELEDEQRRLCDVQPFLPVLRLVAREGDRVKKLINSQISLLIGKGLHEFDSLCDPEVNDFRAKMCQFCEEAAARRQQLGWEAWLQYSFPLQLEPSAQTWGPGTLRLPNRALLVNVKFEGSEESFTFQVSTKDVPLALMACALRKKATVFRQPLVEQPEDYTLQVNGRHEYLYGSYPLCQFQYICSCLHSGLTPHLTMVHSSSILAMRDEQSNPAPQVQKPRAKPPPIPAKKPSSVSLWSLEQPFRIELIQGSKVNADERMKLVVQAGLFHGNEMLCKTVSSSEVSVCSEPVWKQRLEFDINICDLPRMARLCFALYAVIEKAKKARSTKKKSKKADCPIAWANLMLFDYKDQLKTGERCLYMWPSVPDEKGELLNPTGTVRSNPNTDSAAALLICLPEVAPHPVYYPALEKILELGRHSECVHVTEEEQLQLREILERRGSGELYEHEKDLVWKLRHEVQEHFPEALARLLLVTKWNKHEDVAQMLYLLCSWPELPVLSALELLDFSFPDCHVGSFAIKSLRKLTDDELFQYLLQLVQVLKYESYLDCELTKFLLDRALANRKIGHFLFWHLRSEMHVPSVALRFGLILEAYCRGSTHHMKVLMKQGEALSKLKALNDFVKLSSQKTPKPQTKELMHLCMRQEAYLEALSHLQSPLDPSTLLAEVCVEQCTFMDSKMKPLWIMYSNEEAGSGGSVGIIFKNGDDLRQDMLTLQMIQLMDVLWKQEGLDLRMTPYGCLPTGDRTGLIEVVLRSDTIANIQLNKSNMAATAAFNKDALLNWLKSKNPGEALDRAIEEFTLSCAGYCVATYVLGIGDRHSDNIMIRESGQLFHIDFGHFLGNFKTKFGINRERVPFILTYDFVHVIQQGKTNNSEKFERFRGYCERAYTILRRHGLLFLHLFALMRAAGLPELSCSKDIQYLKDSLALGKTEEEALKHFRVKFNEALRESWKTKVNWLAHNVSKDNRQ
# PI 3-kinase delta, sequence (Q63787 whole entry partner): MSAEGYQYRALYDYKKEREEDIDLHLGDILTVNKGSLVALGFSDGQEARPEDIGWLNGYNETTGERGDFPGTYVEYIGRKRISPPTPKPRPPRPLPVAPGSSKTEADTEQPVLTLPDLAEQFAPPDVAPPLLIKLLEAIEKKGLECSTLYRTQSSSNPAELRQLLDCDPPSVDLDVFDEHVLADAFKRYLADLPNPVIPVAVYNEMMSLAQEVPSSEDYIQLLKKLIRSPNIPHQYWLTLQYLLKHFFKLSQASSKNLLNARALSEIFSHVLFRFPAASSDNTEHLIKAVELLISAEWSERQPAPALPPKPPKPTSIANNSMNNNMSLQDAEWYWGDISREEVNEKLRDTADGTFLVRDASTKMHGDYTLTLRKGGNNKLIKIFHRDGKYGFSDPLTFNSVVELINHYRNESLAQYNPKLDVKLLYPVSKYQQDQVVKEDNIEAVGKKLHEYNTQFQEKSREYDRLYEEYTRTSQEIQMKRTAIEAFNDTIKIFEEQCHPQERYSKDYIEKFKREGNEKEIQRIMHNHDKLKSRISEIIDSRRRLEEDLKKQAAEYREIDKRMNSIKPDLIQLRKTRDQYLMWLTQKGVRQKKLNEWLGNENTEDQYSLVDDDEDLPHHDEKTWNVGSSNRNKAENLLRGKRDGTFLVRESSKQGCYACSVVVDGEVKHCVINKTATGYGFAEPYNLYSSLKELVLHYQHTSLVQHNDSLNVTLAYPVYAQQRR
row,SMILES,IC50 [nM]
1,"Cc1ccc(S(=O)(=O)NCCC(C)(C)O)cc1-c1cncc(-c2cn(C)nc2C)n1 [Example 3, 3-[6-(1,3-Dimethyl-1H-pyrazol-4-yl)-pyrazin-2-yl]-N-(3-hydroxy-3-methyl-butyl)-4-methyl-benzenesulfonamide]",1370
2,"Cc1ncc(-c2cncc(-c3cc(S(=O)(=O)N[C@H]4CC[C@H](O)CC4)ccc3C)n2)s1 [Example 5, Trans N-(4-Hydroxycyclohexyl)-4-methyl-3-(6-(2-methylthiazol-5-yl)pyrazin-2-yl)benzenesulfonamide]",540
3,"Cc1ccc(S(=O)(=O)NCC2(C)COC2)cc1-c1cncc(-c2cn(C)nc2C)n1 [Example 4, Trans 3-[6-(1,3-Dimethyl-1H-pyrazol-4-yl)-pyrazin-2-yl]-4-methyl-N-(3-methyl-oxetan-3-ylmethyl)-benzenesulfonamide]",285
4,"Cc1ccc(S(=O)(=O)NCC(C)(C)O)cc1-c1cncc(-c2cn(C)nc2C)n1 [Example 2, 3-[6-(1,3-Dimethyl-1H-pyrazol-4-yl)-pyrazin-2-yl]-N-(2-hydroxy-2-methyl-propyl)-4-methyl-benzenesulfonamide]",367
5,"Cc1ccc(S(=O)(=O)N[C@H]2CC[C@H](O)CC2)cc1-c1cncc(-c2cccnc2)n1 [Example 11, Trans N-(4-Hydroxy-cyclohexyl)-4-methyl-3-(6-pyridin-3-yl-pyrazin-2-yl)-benzenesulfonamide]",1050

# The next lines start with the values.
row,IC50 [nM],SMILES
1,771,"Cc1ccc(S(=O)(=O)NCCC(C)(C)O)cc1-c1cncc(-c2cn(CCN3CCOCC3)nc2C)n1 [Example 10, N-(3-Hydroxy-3-methyl-butyl)-4-methyl-3-{6-[3-methyl-1-(2-morpholin-4-yl-ethyl)-1H-pyrazol-4-yl]-pyrazin-2-yl}-benzenesulfonamide]"
2,1680,"Cc1ccc(S(=O)(=O)NCCC(C)(C)O)cc1-c1cncc(-c2cnn(CCN3CCOCC3)c2)n1 [Example 9, N-(3-Hydroxy-3-methyl-butyl)-4-methyl-3-{6-[1-(2-morpholin-4-yl-ethyl)-1H-pyrazol-4-yl]-pyrazin-2-yl}-benzenesulfonamide]"
